Reference: US20250296971A1, “GASTRIC INHIBITORY PEPTIDE RECEPTOR LIGANDS” (priority 2021, published 2025)
Where two headings read alike, the source gives them in different places. *1 amine or outer side, *2 acyl side, *3 side chain or, on linkers, in order; H or OH if unused. Where a SMILES comes first, the peptide text is derived from it. Bridges are numbered along the chain shown (N, C = ends). [ ]: non-standard residue; d: D form. The star is where a group is joined. X5 = NC(=O)[C@H](CCCCNC(=O)CN1CCN(CC(=O)O)CCN(CC(=O)O)CCN(CC(=O)O)CC1)NC(=O)CCC(=O)NCCCOCCOCCOCCCN*; NH(1-deoxy-D-glucityl) = OC[C@@H](O)[C@@H](O)[C@H](O)[C@@H](O)CN*; DOTA = O=C(O)CN1CCN(CC(=O)O)CCN(CC(=O)*)CCN(CC(=O)O)CC1; Trp(5-Cl) = N[C@@H](Cc1c[nH]c2ccc(Cl)cc12)C(=O)O; Pyridine(2,6-diCH2) = c1cc(C[*:1])nc(C[*:2])c1; Pro(4R-NH2) = N[C@H]1CN[C@H](C(=O)O)C1; mXylylene = c1cc(C[*:1])cc(C[*:2])c1; Glutaryl = O=C(CCCC(=O)[*:2])[*:1]; Hyp = O=C(O)[C@@H]1C[C@@H](O)CN1; X1 = O=C(CN1CCC(N[*:1])CC1)[*:2]; Cha = N[C@@H](CC1CCCCC1)C(=O)O; Suc = O=C(CCC(=O)[*:2])[*:1]; hSer = N[C@@H](CCO)C(=O)O; Api = NC1(C(=O)O)CCNCC1; Thp = NC1(C(=O)O)CCOCC1; Aib = CC(C)(N)C(=O)O

Target: T1, GIPR (CHO-K1-hGIPR cells) (Homo sapiens, UniProt P48546)
T1 construct: host or cells: CHO-K1
T1 sequence (P48546 22-466): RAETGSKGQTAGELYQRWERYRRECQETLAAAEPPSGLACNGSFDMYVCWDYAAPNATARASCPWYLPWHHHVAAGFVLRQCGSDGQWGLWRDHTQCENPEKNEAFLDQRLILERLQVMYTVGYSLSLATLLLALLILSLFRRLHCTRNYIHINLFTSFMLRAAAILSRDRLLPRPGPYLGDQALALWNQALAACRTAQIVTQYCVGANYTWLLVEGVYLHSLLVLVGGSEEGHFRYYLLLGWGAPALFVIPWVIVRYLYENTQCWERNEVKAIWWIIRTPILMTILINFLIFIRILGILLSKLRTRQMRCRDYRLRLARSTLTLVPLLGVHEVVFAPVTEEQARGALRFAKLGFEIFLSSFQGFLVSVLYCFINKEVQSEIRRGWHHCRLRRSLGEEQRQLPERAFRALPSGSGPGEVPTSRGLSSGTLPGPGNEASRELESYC
Assay: FACS binding assay
Details: read-out: pIC50 Category (converted)
In short: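 CHO-K1 cells stably expressing human GIPR were detached with Accutase, suspended at 500.000 cells per mL in PBS with 1% FCS, and washed ice-cold. Bound peptide was detected with 1 μg/mL APC-streptavidin for 30 min on ice.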

[1] = competition with 20 nM GIP-057, 4° C., 1 hour
[2] = competition with 20 nM GIP-057, 4° C. for 1 hour

IC50 [1] [nM] | IC50 [2] [nM] | Structure (SMILES)
– | > 1000 | CC[C@H](C)[C@@H]1NC(=O)[C@H](CC(C)C)NC(=O)[C@H](C)NC(=O)[C@@H](NC(=O)[C@H](CC(C)C)NC(=O)[C@H](CCC(=O)O)NC(=O)[C@@H]2CCCN2C(=O)[C@H](Cc2c[nH]c3ccccc23)NC(=O)[C@H](Cc2c[nH]c3ccccc23)NC(C)=O)CSCc2cccc(c2)CSC[C@@H](C(N)=O)NC1=O [GIP-324, Ac-Trp-Trp-Pro-Glu-Leu-[Cys(3MeBn)-Ala-Leu-Ile-Cys]-NH2] (Ac-WWPELCALIC-NH2; linker 6-10 via mXylylene)
– | 10 to 79.4 | CC[C@H](C)[C@@H]1NC(=O)[C@H](CC(C)C)NC(=O)C2(CCOCC2)NC(=O)[C@@H](NC(=O)[C@H](CC(C)C)NC(=O)[C@H](CCC(=O)O)NC(=O)[C@@H]2CCCN2C(=O)[C@H](Cc2c[nH]c3ccccc23)NC(=O)[C@H](Cc2c[nH]c3ccccc23)NC(=O)CCC(=O)O)CSCc2cccc(c2)CSC[C@@H](C(N)=O)NC1=O [GIP-261, HO-Succinyl-Trp-Trp-Pro-Glu-Leu-[Cys(3MeBn)-Thp-Leu-Ile-Cys]-NH2] (Suc-WWPELC[Thp]LIC-NH2; linker 6-10 via mXylylene)
< 10 | – | CC[C@H](C)[C@@H]1NC(=O)[C@H](CC(C)C)NC(=O)C2(CCOCC2)NC(=O)[C@@H](NC(=O)[C@H](CC(C)C)NC(=O)[C@@H](CCC(=O)O)NC(=O)[C@@H]2C[C@@H](O)CN2C(=O)[C@H](Cc2c[nH]c3ccc(Cl)cc23)NC(=O)[C@H](Cc2c[nH]c3ccccc23)NC(=O)[C@H](CC(=O)O)NC(C)=O)CSCc2cccc(n2)CSC[C@@H](C(N)=O)NC1=O [GIP-223, Ac-Asp-Trp-5Clw-Eaz-Glu-leu-[Cys(2Lut)-Thp-Leu-Ile-Cys]-NH2] (Ac-DW[Trp(5-Cl)][Hyp][dE]LC[Thp]LIC-NH2; linker 7-11 via Pyridine(2,6-diCH2))

Continued, compound first:

Structure (SMILES) | IC50 [1] [nM] | IC50 [2] [nM]
CC[C@H](C)[C@@H]1NC(=O)[C@H](CC(C)C)NC(=O)C2(CCN(C(=O)CN3CCN(CC(=O)O)CCN(CC(=O)O)CCN(CC(=O)O)CC3)CC2)NC(=O)[C@@H](NC(=O)[C@@H](CC(C)C)NC(=O)[C@H](CCC(=O)O)NC(=O)[C@@H]2C[C@@H](N)CN2C(=O)[C@H](Cc2c[nH]c3ccc(Cl)cc23)NC(=O)[C@H](Cc2c[nH]c3ccccc23)NC(=O)[C@H](CCO)NC(=O)CN2CCC(NC(=O)CCCC(=O)NC[C@H](O)[C@@H](O)[C@H](O)[C@H](O)CO)CC2)CSCc2cccc(n2)CSC[C@@H](C(=O)NC2CCN(CC(=O)N[C@H](CCC(=O)NC[C@H](O)[C@@H](O)[C@H](O)[C@H](O)CO)C(N)=O)CC2)NC1=O [GIP-050, AGLU-Glutar-APAc-Hse-Trp-5Clw-Tap-Glu-leu-[Cys(2Lut)-Apc(DOTA)-Leu-Ile-Cys]-APAc-glu(AGLU)-NH] ({NH(1-deoxy-D-glucityl)-Glutaryl}-[X1][hSer]W[Trp(5-Cl)][Pro(4R-NH2)]E[dL]C[Api](DOTA)LIC[X1][dE](NH(1-deoxy-D-glucityl))-NH2; linker 8-12 via Pyridine(2,6-diCH2)) | 10 to 79.4 | –
CC(=O)N[C@@H](CC(=O)O)C(=O)N[C@@H](Cc1c[nH]c2ccccc12)C(=O)N[C@@H](Cc1c[nH]c2ccccc12)C(=O)N1CCC[C@H]1C(=O)N[C@@H](CCC(=O)O)C(=O)N[C@@H](CC(C)C)C(=O)N[C@H]1CSCc2cccc(c2)CSC[C@@H](C(=O)NCCCOCCOCCOCCCNC(=O)CCC(=O)N[C@@H](CCCCNC(=O)CN2CCN(CC(=O)O)CCN(CC(=O)O)CCN(CC(=O)O)CC2)C(N)=O)NC(=O)[C@H](CC2CCCCC2)NC(=O)[C@H](CC(C)C)NC(=O)C(C)(C)NC1=O [GIP-278, Ac-Asp-Trp-Trp-Pro-Glu-Leu-[Cys(3MeBn)-Aib-Leu-Cha-Cys]-Ttds-Lys(DOTA)-NH2] (Ac-DWWPELC[Aib]L[Cha]C-X5; linker 7-11 via mXylylene) | – | 100 to 794
